# Measurements taken from ChEMBL document CHEMBL5380844, “Discovery of a Novel, Potent, Orally Active, and Safe Inhibitor Targeting Human Mitochondrial RNA Polymerase” (J Med Chem, 2023).
# Calls of active or inactive are those of the source. The rule behind the calls is not given here.
# Experiments:
# [1] = Volume of distribution at steady state in ICR mouse at 1 mg/kg, iv measured upto 24 hrs by LC-MS/MS analysis; format: ADME, organism-based; settings: in vivo, read-out: Vdss
# [2] = Cmax in ICR mouse at 1 mg/kg, iv measured upto 24 hrs by LC-MS/MS analysis; format: ADME, organism-based; design: time < 24 hrs, dose 1 mg/kg, route iv; settings: in vivo
# [3] = AUC (0 to t) in ICR mouse at 1 mg/kg, iv measured upto 24 hrs by LC-MS/MS analysis; format: ADME, organism-based; design: time < 24 hrs, dose 1 mg/kg, route iv; settings: in vivo
# [4] = Half life in ICR mouse at 10 mg/kg, po measured upto 24 hrs by LC-MS/MS analysis; format: ADME, organism-based; settings: in vivo
# A2780 [5] = experiment: Antiproliferative activity against human A2780 cells incubated for 168 hrs by SRB method; format: functional, cell-based; settings: A2780, 168 h
# [6] = MRT in ICR mouse at 1 mg/kg, iv measured upto 24 hrs by LC-MS/MS analysis; format: ADME, organism-based; settings: in vivo
# [7] = Clearance in ICR mouse at 1 mg/kg, iv measured upto 24 hrs by LC-MS/MS analysis; format: ADME, organism-based; settings: in vivo
# [8] = Cmax in ICR mouse at 10 mg/kg, po measured upto 24 hrs by LC-MS/MS analysis; format: ADME, organism-based; design: time < 24 hrs, dose 10 mg/kg, route po; settings: in vivo
# [9] = Oral bioavailability in ICR mouse at 10 mg/kg measured upto 24 hrs by LC-MS/MS analysis; format: ADME, organism-based; settings: in vivo
# [10] = Inhibition of ND1 transcript level in human A2780 cells at 500 nM measured after 12 hrs by RT-qPCR analysis relative to control; format: functional
# [11] = AUC (0 to infinity) in ICR mouse at 1 mg/kg, iv measured upto 24 hrs by LC-MS/MS analysis; format: ADME, organism-based; design: time < 24 hrs, dose 1 mg/kg, route iv; settings: in vivo
# [12] = Half life in ICR mouse at 1 mg/kg, iv measured upto 24 hrs by LC-MS/MS analysis; format: ADME, organism-based; settings: in vivo
# [13] = AUC (0 to t) in ICR mouse at 10 mg/kg, po measured upto 24 hrs by LC-MS/MS analysis; format: ADME, organism-based; design: dose 10 mg/kg, time < 24 hrs, route po; settings: in vivo
# MDA-MB-231 = experiment: Antiproliferative activity against human MDA-MB-231 cells incubated for 168 hrs by SRB method; format: functional, cell-based; settings: MDA-MB-231, 168 h
# MIA PaCa-2 = experiment: Antiproliferative activity against human MIA PaCa-2 cells incubated for 168 hrs by SRB method; format: functional, cell-based; settings: MIA PaCa-2, 168 h
# DLD-1 = experiment: Antiproliferative activity against human DLD-1 cells incubated for 168 hrs by SRB method; format: functional, cell-based; settings: DLD-1, 168 h
# [14] = Toxicity in Balb/c mouse assessed as effect on spleen at 100 mg/kg by H and E staining based analysis; format: organism-based; settings: in vivo
# A2780 [15] = experiment: Antitumor activity against human A2780 cells xenografted in BALB/c nude mouse model assessed as reduction in mitochondrial DNA transcript level at 100 mg/kg, po administered daily; format: functional, organism-based
# A2780 [16] = experiment: Antitumor activity against human A2780 cells xenografted in BALB/c nude mouse model assessed as reduction in ND1 expression in liver at 100 mg/kg, po administered daily; format: functional, organism-based
# A2780 [17] = experiment: Antitumor activity against human A2780 cells xenografted in BALB/c nude mouse model assessed as reduction in tumor weight at 100 mg/kg, po administered daily and measured after 27 days relative to control; format: functional; design: scale not given: the % may be the effect or the level left; settings: time 27 day
# [18] = Toxicity in Balb/c mouse assessed as effect on liver at 100 mg/kg by H and E staining based analysis; format: organism-based; settings: in vivo
# [19] = Toxicity in Balb/c mouse assessed as effect on kidney at 100 mg/kg by H and E staining based analysis; format: organism-based; settings: in vivo
# A2780 [20] = experiment: Antitumor activity against human A2780 cells xenografted in BALB/c nude mouse model assessed as induction of tumor shrinkage 100 mg/kg by H and E staining based immunohistochemical analysis; format: functional, organism-based
# [21] = Solubility in PBS at pH 7.4; format: physicochemical
# NCI-H1975 = experiment: Antiproliferative activity against human NCI-H1975 cells incubated for 168 hrs by SRB method; format: functional, cell-based; settings: NCI-H1975, 168 h
# IMR-90 = experiment: Antiproliferative activity against human IMR-90 cells incubated for 168 hrs by SRB method; format: functional, cell-based; settings: IMR-90, 168 h
# MDA-MB-468 = experiment: Antiproliferative activity against human MDA-MB-468 cells incubated for 168 hrs by SRB method; format: functional, cell-based; settings: MDA-MB-468, 168 h
# [22] = Toxicity in Balb/c mouse assessed as effect on heart at 100 mg/kg by H and E staining based analysis; format: organism-based; settings: in vivo
# [23] = Acute toxicity in Balb/c mouse assessed as effect on liver 100 mg/kg measured after 27 days by H and E staining based analysis; format: organism-based; settings: in vivo, 648 h, time 27 day
# [24] = Toxicity in Balb/c mouse assessed as effect on lung at 100 mg/kg by H and E staining based analysis; format: organism-based; settings: in vivo
# [25] = Acute toxicity in Balb/c mouse assessed as effect on kidney 100 mg/kg measured after 27 days by H and E staining based analysis; format: organism-based; settings: in vivo, 648 h, time 27 day
# NCI-H3122 = experiment: Antiproliferative activity against human NCI-H3122 cells incubated for 168 hrs by SRB method; format: functional, cell-based; settings: NCI-H3122, 168 h
# HeLa = experiment: Antiproliferative activity against human HeLa cells incubated for 168 hrs by SRB method; format: functional, cell-based
# A549 = experiment: Antiproliferative activity against human A549 cells incubated for 168 hrs by SRB method; format: functional, cell-based; settings: A549, 168 h
# HepG2 = experiment: Antiproliferative activity against human HepG2 cells incubated for 168 hrs by SRB method; format: functional, cell-based; settings: HepG2, 168 h
# [26] = Antiproliferative activity against human PBMC cells incubated for 168 hrs by SRB method; format: functional, cell-based
smiles,measurement,setting,value
Cc1ccc(-c2cc(=O)oc3cc(O[C@H](C)C(=O)N4CC5CCC(C4)N5)ccc23)c(C)c1,Vd,[1],5.84 L/kg
same,Cmax,[2],234 ng/mL
same,AUC(0-t) at 24 h,[3],294 ng·h/mL
same,half-life,[4],2.67 h
same,IC50,A2780 [5],27 nM
same,MRT,[6],2.05 h
same,clearance,[7],47.6 mL/min/kg
same,Cmax,[8],66.6 ng/mL
same,bioavailability,[9],13.7%
same,inhibition at 0.5 µM,[10],7%
same,AUC(0-inf),[11],351 ng·h/mL
same,half-life,[12],1.61 h
same,AUC(0-t) at 24 h,[13],403 ng·h/mL
C[C@@H](Oc1ccc2c(-c3ccc(F)cc3Cl)cc(=O)oc2c1)C(=O)N1CCC[C@H](C(=O)O)C1,IC50,MDA-MB-231,> 10000 nM
same,IC50,MIA PaCa-2,152 nM
same,IC50,DLD-1,142 nM
same,Activity,[14],Non-Toxic
same,Activity,A2780 [15],Active
same,Activity,A2780 [16],Active
same,Activity,A2780 [17],56.75%
same,Activity,[18],Non-Toxic
same,Activity,[19],Non-Toxic
same,Activity,A2780 [20],Active
same,solubility,[21],6.49 µg/mL
same,IC50,A2780 [5],138 nM
same,IC50,NCI-H1975,221 nM
same,IC50,IMR-90,> 50000 nM
same,IC50,MDA-MB-468,189 nM
same,inhibition at 0.5 µM,[10],25%
same,Activity,[22],Non-Toxic
same,Activity,[23],Non-Toxic
same,Activity,[24],Non-Toxic
same,Activity,[25],Non-Toxic
same,IC50,NCI-H3122,> 10000 nM
same,IC50,HeLa,1050 nM
same,IC50,A549,881 nM
same,IC50,HepG2,168 nM
same,IC50,[26],> 50000 nM
